Experimental data: patent US20050222402A1, “Dna encoding rat bombesin receptor subtype-3 (brs-3) and uses thereof” (priority 2001, published 2005)
Non-standard residues stand in square brackets, D forms with d. Residues, ends and D or L forms follow the SMILES beside them. Nle = CCCC[C@H](N)C(=O)O; βAla = NCCC(=O)O

What was measured:
rat BRS-3 = molecular target: T1, rat BRS-3 (Rattus norvegicus, UniProt Q8K418); assay: Radioligand binding assay with 125I-dYB
T1 construct: utilized to PCR amplify full-length rat BRS-3 cDNA; expressed in transfected cells; host or cells: 293EBNA cells, pE3 expression vector
T1 sequence (Q8K418 1-399): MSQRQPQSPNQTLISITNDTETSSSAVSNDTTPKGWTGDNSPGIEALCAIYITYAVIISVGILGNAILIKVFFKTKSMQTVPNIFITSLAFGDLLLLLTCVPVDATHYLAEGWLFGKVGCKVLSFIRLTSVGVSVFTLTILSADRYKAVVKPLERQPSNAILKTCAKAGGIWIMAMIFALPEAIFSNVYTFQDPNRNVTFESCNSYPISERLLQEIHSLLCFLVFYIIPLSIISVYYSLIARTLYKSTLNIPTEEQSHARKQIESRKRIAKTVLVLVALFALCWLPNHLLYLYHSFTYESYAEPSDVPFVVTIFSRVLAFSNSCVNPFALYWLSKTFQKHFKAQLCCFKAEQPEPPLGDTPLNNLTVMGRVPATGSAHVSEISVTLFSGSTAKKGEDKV
Protocol: (§1) Peptide dYB (dY-Q-W-A-V-(beta-A)-H-F-Nle-amide) (SEQ ID NO:10) was made by Research Genetics (Huntsville, Ala.) and custom labeled by NEN Life Science (NEN, Boston, Mass.) with a ^125I on the dY phenyl ring. The specific activity of ^125I-dYB is 2200 ci/mmol. The 293EBNA cells expressing wild type or mutant BRS-3 grown in 150-mm^2 dishes were harvested in binding buffer (50 mM HEPES, pH 7.4, 5 mM MgCl2, 0.1% BSA) and disrupted with Dounce homogenization.
(§2) After removal of cell nuclei by a low speed centrifugation (1000×g) step, the cell membrane proteins were collected by centrifugation at 35,000×g for 20 minutes. The membrane protein concentration was determined by the Bradford method using BSA as standard.
(§3) For binding assays, ˜20 ug membrane proteins were incubated with 0.25 nM ^125I-dYB and various concentrations of competitors in 200 ul binding buffer. After a 2 hr incubation at room temperature, the binding reaction was terminated by filtering through a GF/c filter-mate and washing the filter with binding buffer using Packard 96-well Topcount Harvester. The amount of radioligand bound to the receptor was determined by measurement of the radioactivity on the filter through liquid scintillation counting. The non-specific binding was defined as the binding in the presence of 1 uM unlabeled dYB.

mouse BRS-3 = molecular target: T2, mouse BRS-3 (Mus musculus, UniProt O54798, S28P/V27A); assay: Calcium mobilization assay (FLIPR), same expression system; format: cell-based; settings: data not shown
T2 construct: expressed in transfected cells; host or cells: same expression system as rat BRS-3 (pE3 / 293EBNA)
T2 sequence (O54798 1-399 V27A/S28P): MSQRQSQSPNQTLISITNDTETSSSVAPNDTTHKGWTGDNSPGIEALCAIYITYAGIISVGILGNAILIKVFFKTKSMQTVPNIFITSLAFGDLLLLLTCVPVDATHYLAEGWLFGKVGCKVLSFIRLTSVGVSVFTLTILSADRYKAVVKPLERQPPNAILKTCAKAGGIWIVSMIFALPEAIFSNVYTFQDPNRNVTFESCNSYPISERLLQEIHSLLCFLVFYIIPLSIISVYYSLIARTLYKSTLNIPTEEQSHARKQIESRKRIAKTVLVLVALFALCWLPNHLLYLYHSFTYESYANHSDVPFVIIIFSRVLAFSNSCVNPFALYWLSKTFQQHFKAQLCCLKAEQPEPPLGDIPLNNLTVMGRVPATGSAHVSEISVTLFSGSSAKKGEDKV

human BRS-3 = molecular target: T3, human BRS-3 (Homo sapiens, UniProt P32247); assay: Radioligand binding assay with 125I-dYB
T3 construct: expressed in transfected cells; host or cells: 293EBNA cells, pE3 expression vector
T3 sequence (P32247 1-399): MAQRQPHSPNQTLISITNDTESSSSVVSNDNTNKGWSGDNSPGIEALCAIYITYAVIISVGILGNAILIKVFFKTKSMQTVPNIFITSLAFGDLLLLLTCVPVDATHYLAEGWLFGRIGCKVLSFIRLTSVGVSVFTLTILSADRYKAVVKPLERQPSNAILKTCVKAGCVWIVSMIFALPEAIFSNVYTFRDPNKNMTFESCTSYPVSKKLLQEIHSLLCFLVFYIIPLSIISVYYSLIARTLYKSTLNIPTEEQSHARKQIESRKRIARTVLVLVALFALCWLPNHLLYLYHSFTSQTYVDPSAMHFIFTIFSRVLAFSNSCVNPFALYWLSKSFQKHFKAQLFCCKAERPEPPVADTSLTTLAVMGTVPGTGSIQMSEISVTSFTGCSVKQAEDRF
Protocol: as §1, §2, §3

SMILES | specific binding to rat BRS-3 (rat BRS-3) | EC50 (mouse BRS-3) | Ki (human BRS-3) [nM]
CCCC[C@H](NC(=O)[C@H](Cc1ccccc1)NC(=O)[C@H](Cc1c[nH]cn1)NC(=O)CCNC(=O)[C@@H](NC(=O)[C@H](C)NC(=O)[C@H](Cc1c[nH]c2ccccc12)NC(=O)[C@H](CCC(N)=O)NC(=O)[C@H](N)Cc1ccc(O)cc1)C(C)C)C(N)=O [dYB, [D-Tyr6-betaAla11-Phe13-Nle14] bombesin (6-14)] (H-[dY]QWAV[βAla]HF[Nle]-NH2) | undetectable | in the uM range | 
CCCC[C@H](NC(=O)[C@H](Cc1ccccc1)NC(=O)[C@H](Cc1cnc[nH]1)NC(=O)CCNC(=O)[C@@H](NC(=O)[C@H](C)NC(=O)[C@H](Cc1c[nH]c2ccccc12)NC(=O)[C@H](CCC(N)=O)NC(=O)[C@H](N)Cc1ccc(O)cc1)C(C)C)C(N)=O [dYB, [D-Tyr6-betaAla11-Phe13-Nle14] bombesin (6-14)] (H-[dY]QWAV[βAla]HF[Nle]-NH2) |  |  | 1.8 ± 0.6
